These results are taken from a melting point compilation (Tetko et al.).

Usually melting point stands for the temperature of the solid-liquid transition.

The compound `COC(=O)CC(=O)c1ccccc1Cl` showed a melting point of 25 °C.

In turn, `O=C(O)C1(O)CC1` returned a melting point of 108 to 110 °C.

Turning to `CC(=NO)c1ccccc1`, the melting point is 60 °C.

In the case of `CCOC(=O)c1c(N=C=S)sc2c1CCCC2`, the melting point was in the range of 45 to 46 °C.

On to `Brc1cnc2[nH]ccc2c1`, for which the melting point was 179 °C.

Turning to `Cn1cnnc1-c1cccc(N)c1`, the melting point was in the range of 158 to 159 °C.

`[O-][N+](=Nc1ccccc1)c1ccc(N=Nc2ccccc2)cc1` came in with a melting point of 130 to 131 °C.

Regarding `BrCC(CBr)(CBr)CBr`, the melting point came to 163 °C.

The compound `CCCCCCCCCCCCCCCl` had a melting point of 4.9 °C.

`C1SSCSSS1` displayed a melting point of 60.5 °C.

`CSc1nc(NC(C)C)nc(NC(C)C)n1` gave a melting point of 119 °C.

`CCCCCCCCCCCCCCc1ccccc1` showed a melting point of 16 °C.

On to `Cc1c(Cc2c(C)n(C)n(-c3ccccc3)c2=O)c(=O)n(-c2ccccc2)n1C`, for which the melting point was 155 °C.

Take `O=C(O)Cc1ccccc1Oc1ccc(Cl)cc1Cl`: the melting point came to 112 °C.

Take `COc1cc2nc(N3CCN(C(=O)c4ccco4)CC3)nc(N)c2cc1OC`: the melting point is 285 °C.

Regarding `CCSCC[C@@H](N)C(=O)O`, the melting point stood at 278 °C.

`O=C(c1ccccc1)c1c(-c2ccccc2)n(C(=O)c2ccccc2)c2cc([N+](=O)[O-])ccc12` gave a melting point of 204 °C.

For the compound `CCCCCCCCc1ccc(NC(=O)Oc2ccc(OC)cc2)cc1`, the melting point is 133 °C.

The compound `CCCCCCCCCCCCCCCCCC[Si](C)(C)Cl` showed a melting point of 30 °C.

In turn, `Clc1cccc(Cl)c1-c1nnn[nH]1` gave a melting point of 203 °C.

As for `CCOC(=O)C(C#N)=C(N)c1cc2cccc(OC)c2oc1=O`, the melting point lay within 251 to 252 °C.

In the case of `NNc1ccc(F)cc1F`, the melting point was in the range of 65 to 67 °C.

In the case of `OCC[C@@H](O)c1ccccc1`, the melting point was 62 to 66 °C.

On to `CCOC(=O)C(OC(=O)c1ccccc1)c1cc(C(OC(=O)c2ccccc2)C(=O)OCC)c([N+](=O)[O-])cc1[N+](=O)[O-]` (centres undefined), for which the melting point was found to be 133 °C.

In turn, `Cc1noc(-c2ccccc2C=O)n1` registered a melting point of 66 to 68 °C.

As to `NCCCN1CCOCC1`, the melting point was -15 °C.

For the compound `Cn1ccc(-c2ccc(CCl)cc2)n1`, the melting point is 78 to 80 °C.

Turning to `OCc1cccc(-c2cccs2)c1`, the melting point fell in the range of 46 to 49 °C.

Compound `Cc1ccc2c(c1)C(=O)OC2=O` showed a melting point of 88 to 92 °C.

In turn, `CCOC1C(=O)NC2=C(C1=O)C(c1ccc(Br)cc1)c1c(c3ccccc3oc1=O)O2` (centres undefined) displayed a melting point of 196 °C.

In turn, `O=C1c2ccccc2-c2ccc(O)cc21` had a melting point of 205 °C.

As for `O=C1C(C(O)c2c(Cl)cccc2Cl)C(C(F)(F)F)=NN1c1ccccc1` (centres undefined), the melting point turned out to be 196 °C.

On to `CC(=O)c1ccc(O)c(O)c1`, for which the melting point fell in the range of 117 to 119 °C.

`Nc1ccc(Sc2ccc(N)cc2)cc1` had a melting point of 108 °C.

Regarding `CC(C)c1cc(Br)c(N)c(Br)c1`, the melting point was 46 °C.

With `Cc1c(C(=O)Cl)oc2ccccc12`, the melting point is 70 to 74 °C.

With `COC(=O)c1cccc(OC)c1OC`, the melting point was in the range of 46 to 49 °C.

`Nc1cc2ccccc2cn1` returned a melting point of 154 to 156 °C.

`Cc1ccc2c(c1)C(=O)C2` registered a melting point of 46 °C.

As to `CC(C)CCCC(C)(C)C`, the melting point is -105 °C.

In turn, `COc1c(Cl)ccc(Cl)c1C(=O)O` yielded a melting point of 115 °C.

With `COc1ccc(C23C(=C(c4ccccc4)c4ccccc4)C4CC2C3(C)C4(C)C)cc1` (centres undefined), the melting point was found to be 124 °C.

`CN1CCN(c2cccc(C(=O)O)c2)CC1` had a melting point of 187 to 190 °C.

In turn, `CCOC(=O)c1c(SC)nn(-c2ccc([N+](=O)[O-])cc2)c1N` had a melting point of 181 °C.

`COc1cc(C=CC(=O)O)cc(Br)c1O` came in with a melting point of 256 °C.

Compound `CC(=O)OC(CCC(=O)c1ccccc1)c1ccccc1` (centres undefined) returned a melting point of 73 °C.

In turn, `OCCNC(CO)(CO)CO` gave a melting point of 89 °C.

With `NC(=S)c1ccccc1Cl`, the melting point was 68 to 70 °C.

As to `CC12CCC(/C(=C/N(Cl)c3ccccc3)C1=O)C2(C)C` (centres undefined), the melting point lay within 102 to 103 °C.

Take `CC(=O)c1ccc(O)c([N+](=O)[O-])c1`: the melting point turned out to be 132 °C.

`c1cc(OCC2CO2)ccc1OCC1CO1` (centres undefined) had a melting point of 111 °C.

On to `NN1C(=O)c2ccccc2C1=O`, for which the melting point lay in the range of 200 to 202 °C.

Regarding `COc1ccccc1C1(C)CCc2oc3ccccc3c2-c2oc(C)cc21` (centres undefined), the melting point came out at 158 °C.

Turning to `CCN(C#N)CC`, the melting point was -80.6 °C.

Consider `Cc1cc(C(=O)CCl)c(C)n1-c1ccc(Cl)cc1`, for which the melting point lay within 88 to 89 °C.

Turning to `CC(=O)CCc1ccc(O)cc1`, the melting point lay within 82 to 84 °C.

Consider `Clc1ccc(CC(=CCN2CCCC2)c2ccccc2)cc1`, for which the melting point is 48.5 °C.

With `O=C(O)CN(CC(=O)O)Cc1cc2c(c(O)c1O)C(=O)c1ccccc1C2=O`, the melting point came out at 190 °C.

`CN1C(=O)CN=C(c2ccccc2F)c2cc([N+](=O)[O-])ccc21` yielded a melting point of 166 °C.

Turning to `OCC1OC(n2cnc3cncnc32)C(O)C1O` (centres undefined), the melting point amounted to 181 °C.

In turn, `CCOC(=O)CCC(C)C1CCC2C3C(O)C(Br)C4CC(OC(C)=O)CCC4(C)C3CC(OC(C)=O)C12C` (centres undefined) returned a melting point of 164 to 167 °C.

On to `O=C1N(c2ccccc2)C(=O)[C@]2(Cl)C=C(c3ccccc3)[C@]12Cl`, for which the melting point worked out at 152 °C.

`O=C(C(=S)Nc1ccccc1Cl)c1ccccc1` yielded a melting point of 119 °C.

Take `Cc1cccc2c1C(=O)OC2O` (centres undefined): the melting point is 117 °C.

Turning to `CC(=O)Nc1ccc(CC#N)cc1`, the melting point fell in the range of 82 to 83 °C.

The compound `O=S(=O)(Cl)c1ccc(Br)cc1Cl` returned a melting point of 79 °C.

Compound `CC(=O)Nc1cc(NC(C)=O)c(C=Cc2ccccc2)c(NC(C)=O)c1C=Cc1ccccc1` yielded a melting point of 330 °C.

In turn, `CC1=CC(c2ccccc2)c2ccccc21` (centres undefined) displayed a melting point of 61 °C.

The compound `Cn1c(=O)c(C2=NNC(=O)C2=CC=Cc2ccccc2)c(O)c2ccccc21` registered a melting point of 238 °C.

`CC(=O)NC(C)=O` displayed a melting point of 79 °C.

Compound `CON(C)C(=O)Nc1ccc(Cl)cc1` yielded a melting point of 81.5 °C.

Regarding `CC(C)(C#N)N=NC(C)(C)C#N`, the melting point was 102 °C.

The compound `Nc1oc2ccc(Cl)cc2c(=O)c1C=O` registered a melting point of 300 °C.

Regarding `Cc1cc(C(F)(F)F)n2nc(-c3ccc(Cl)cc3)cc2n1`, the melting point came out at 176 °C.

Take `Brc1cccc2cc[nH]c12`: the melting point lay within 46 to 47 °C.

For `CC1(c2ccccc2)CC(C(=NNC(O)=S)c2cc3ccccc3o2)C1` (centres undefined), the melting point lay within 191 to 192 °C.

`N#CC(=S)Nc1ccccc1` showed a melting point of 75 to 80 °C.

In the case of `Cc1cc(C)c(C(=O)O)c(C)n1`, the melting point fell in the range of 130 to 160 °C.

`CCCCCCCCCC[C@H](O)CO` registered a melting point of 69 to 72 °C.

The compound `CC(C)(C(=O)c1cccnc1)c1cccnc1` returned a melting point of 50.5 °C.

`CCOC(=O)c1ccc2cn[nH]c2c1` showed a melting point of 125 °C.

On to `O=[N+]([O-])C=Cc1c(F)cccc1Cl`, for which the melting point worked out at 63 °C.

`Cc1cc(Cl)nnc1Cl` showed a melting point of 87 °C.

In the case of `Brc1cnc2c(c1)OCCN2`, the melting point is 116 to 119 °C.

For `CCOC(=O)c1nn(-c2ccc(C)cc2)c(C)c1C(=O)c1noc(-c2ccc3ccccc3c2)c1S(=O)(=O)c1ccccc1`, the melting point was found to be 172 °C.

Turning to `CC(C)[C@]12C/C(=N\NC(N)=O)[C@H](C)[C@H]1C2`, the melting point is 174 °C.

`O=C(C(Cl)Cl)C(Cl)(Cl)Cl`: the melting point turned out to be 2.1 °C.

Regarding `CCOc1ccc(-c2nnc3n2NC(c2ccccc2OC)S3)cc1` (centres undefined), the melting point worked out at 194 °C.

Regarding `CCCCCCCCCCCCCC(=O)Oc1ccc(N=Cc2ccc(N(C)C)cc2)cc1`, the melting point amounted to 106 °C.

The compound `CCCCCCCCC=CCCCCCCCCOC(=O)OC1CCC2(C)C(=CCC3C2CCC2(C)C(C(C)CCCC(C)C)CCC32)C1` (centres undefined) displayed a melting point of 20 °C.

The compound `COc1cc2cc(c1Cl)N(C)C(=O)CC(OC(=O)C(C)N(C)C(C)=O)C1(C)OC1C(C)C1CC(O)(NC(=O)O1)C(OC)C=CC=C(C)C2` (centres undefined) registered a melting point of 172 °C.

As for `N#C/C(=N\Nc1cccc(C(=O)O)c1)c1nc2ccccc2s1`, the melting point was 200 °C.

With `Brc1cccc2cc(C=NNc3ccccc3)ccc12`, the melting point was determined as 151 °C.

Turning to `Cn1nc(CCl)cc1-c1cccs1`, the melting point lay within 41 to 42 °C.

Compound `CCOC(=O)C(C=Cc1cccc(C=CC(C(=O)OCC)C(=O)OCC)c1)C(=O)OCC` displayed a melting point of 100 to 102 °C.

As to `Cc1cc(CO)n(C)n1`, the melting point was in the range of 52 to 54 °C.

As for `Oc1ccc(/C=C/c2ccccc2)cc1`, the melting point lay in the range of 185 to 189 °C.

On to `Cc1cc(C(C)(C)C)nc(C(C)(C)C)c1`, for which the melting point fell in the range of 33 to 36 °C.

`O=C1CNC(=S)N1` came in with a melting point of 230 °C.

`C(=Nc1ccccc1Nc1ccccc1N=Cc1ccccc1)c1ccccc1` came in with a melting point of 102 to 104 °C.

In turn, `Cc1n[nH]cc1[N+](=O)[O-]` displayed a melting point of 133 °C.

On to `CCOC(=O)c1cc(-c2ccco2)n(C)n1`, for which the melting point was 63 to 64 °C.

`CCC(=O)c1ccc[nH]1` gave a melting point of 50 °C.

`N#Cc1c(F)cc(F)cc1F` displayed a melting point of 57 to 61 °C.

As to `Cn1cc([N+](=O)[O-])c(=O)[nH]c1=O`, the melting point lay within 267 to 270 °C.

For `O=C1Cc2c1cccc2[N+](=O)[O-]`, the melting point lay within 115 to 117 °C.

Take `COC(=O)c1cc(O)cc(Br)c1`: the melting point stood at 133 °C.

`CCCCCCCCC(=O)OC(=O)CCCCCCCC`: the melting point amounted to 14.8 °C.

Consider `FC(F)(F)c1cc(Cl)c(Cl)c(Cl)c1`, for which the melting point was -10 to -8 °C.
